Source: patent EP4692059A1, “CATIONIC LIPID HAVING DISULFIDE BOND” (Tohoku University, priority 2023, dated 2024)

Tests used:
[1] = Particle size, PdI and zeta potential of mRNA-encapsulating LNPs by dynamic light scattering (Experimental Example 2); format: physicochemical; conditions: mRNA-encapsulating LNP containing the cationic lipid
Procedure: An acidic buffer solution (total amount: 1080 µL) of nucleic acid was prepared by weighing 7.2 µg of mRNA solution (0.6 mg/mL) in a 5 mL tube and adding acidic malate buffer (20 mM, pH 3.0).
An acidic buffer solution of nucleic acid and an ethanol solution of lipid were each weighed in a syringe.
The particle size, PdI (Polydispersity Index), and zeta potential of the mRNA-encapsulating LNP prepared by the method of the above-mentioned 1 were measured by a dynamic light scattering method (Zetasizer Nano; Malvern).

liver = assay: In vivo gene expression, luciferase luminescence in the liver after tail vein administration (Experimental Example 7); conditions: BALB/c mouse, mRNA 0.05 mg/kg
Procedure: LNP encapsulating mRNA that expresses luciferase (cationic lipid:DOPC:Chol:DMG-PEG2k = 52.5:7.5:40:1.5 (molar ratio)) was prepared by the method described in [Experimental Example 6], 1.
The prepared each mRNA-encapsulating LNP dispersion was administered from the tail vein of BALB/c mouse (male, 5-week-old). The dose of mRNA was set to 0.05 mg per 1 kg body weight of the mouse, and the dose of the mRNA-encapsulating LNP dispersion was set to 10 µL per 1 g body weight of the mouse. After 4.5 hr from the administration of the mRNA-encapsulating LNP dispersion, a PBS solution of D-luciferin potassium was administered into the abdominal cavity of the mouse. The dose of D-luciferin potassium was set to 3 mg per mouse, and the dose of the PBS solution of D-luciferin potassium was set to 200 µL per mouse. After 15 min from the administration of the PBS solution of D-luciferin potassium, the mouse was euthanized, and the liver was isolated. The luminescence in the liver was quantified using an in vivo imaging system (IVIS) with an exposure of 10 sec. The amount of luminescence in the liver was quantified by image analysis using Live Imaging software attached to IVIS. The amount of luminescence (photons/sec) was calculated from the acquired image and used as an index of gene expression activity. The cationic lipids used, the luminescence intensity in the liver, and the relative luminescence intensity (= luminescence intensity in the liver when cationic lipid of Example was used/luminescence intensity in the liver when cationic lipid of Comparative Example was used) are shown in Table 9. For example, "3.94E+09" means "3.94×10^9". […]

[2] = Measurement of Liposomal pKa (TNS fluorescence, LNP without nucleic acid); conditions: cationic lipid:DOPC:Chol = 52.5:7.5:40 (molar ratio) + DMG-PEG2k about 1.5 mol, pH at which the relative fluorescence intensity was 50%
Procedure: Lipid nano particles (LNP) without containing nucleic acid were used for the evaluation of Liposomal pKa.
To the obtained mixture was further added DMG-PEG2k (2 mM ethanol solution) in an amount of about 1.5 mol with respect to the total amount 100 mol of cationic lipid, DOPC, and Chol, and then ethanol was added to prepare an ethanol solution of the lipid (total amount: 360 µL).
An acidic malic acid buffer (20 mM, pH 3.0) (1080 µL) containing NaCl at a final concentration of 30 mM and an ethanol solution (360 µL) of lipid were each weighed in a syringe. Using an ultra high-speed nanomedicament producing apparatus NanoAssmblr (manufactured by Precision NanoSystems), LNP was prepared under the conditions of addition rate of acidic buffer solution: 3 mL/min, addition rate of ethanol solution of lipid: 1 mL/min, and syringe holder temperature: 25°C, and collected in a 15 mL tube. […]
20 mM Citrate buffer, sodium phosphate buffer, and tris HCl buffer, each containing NaCl at a final concentration of 150 mM and adjusted to various pHs within the range of pH 3.0 to 10.0, were prepared. […] The relative fluorescence intensity was calculated as a percentage, with the maximum value of the fluorescence intensity in each LNP being 100% and the minimum value being 0%.

[3] = dispersion in PBS, dynamic light scattering (Table 5-3)

## CCCCCCCC/C=C\CCCCCCCC(=O)Oc1ccc(CC(=O)OCCC2CCN(CCSSCCN3CCC(CCOC(=O)Cc4ccc(OC(=O)CCCCCCC/C=C\CCCCCCCC)cc4)CC3)CC2)cc1 [Comparative Example, reference compound]
[1]; dispersion in PBS (Table 5-3)
  zeta potential (mV): -4.47 mV
[1]; [3]
  PdI: 0.099
  particle size (nm): 108.70 nm
liver; tail vein, 4.5 hr after administration, LNP cationic lipid:DOPC:Chol:DMG-PEG2k = 52.5:7.5:40:1.5, prepared as in Experimental Example 6
  amount of luminescence (photons/sec) in liver: 2.05E+09 photons/sec
liver; liver luminescence relative to cationic lipid of Comparative Example
  relative amount of luminescence: 1.00
[2]
  Liposomal pKa: 6.50
